The subject of experiment [1] is Staphylococcus aureus ATCC12600. The experiment can be described thus: MIC assay, wild type S. aureus ATCC 12600. It counts as cell-based.
Another experiment deals with M. tuberculosis H37Rv. Nature of the experiment: Antibiotic assay against Mycobacterium tuberculosis (IC90). It counts as cell-based. The settings on record: for MIC: read-out: IC90 (footnote a; column head MIC).
The target of experiment [2] is T1, S447L mutant DNA-dependent RNA polymerase from Mycobacterium smegmatis (Mycolicibacterium smegmatis, UniProt P60281, S447L).
T1 construct: made in house
It counts as biochemical. The settings on record: S447L M. smegmatis RNAP mutant.

The test system of experiment [3] is Staphylococcus aureus USA100. Nature of the experiment: MIC assay, S. aureus USA100.
Experimental: (§1) Minimum Inhibitory Concentration (MIC) and Minimal Bactericidal Concentration (MBC) Assays. […] Specifically, overnight cultures in an appropriate broth (e.g., Luria Bertani, Mueller-Hinton II) were diluted to 5×10^5 cfu/mL and used to fill wells of a 96-well plate. […] The plates were incubated on a shaker (200 rpm) at 35-37° C. for 18-20 hours, and then the optical density was measured at 595 nm on a microplate reader.
Experiment [4] relates to Staphylococcus aureus USA200. Nature of the experiment: MIC assay, S. aureus USA200.
Experimental: as §1
Experiment [5] deals with Staphylococcus aureus USA800. Nature of the experiment: MIC assay, S. aureus USA800.
Experimental: as §1
Experiment [6] relates to Staphylococcus aureus ATCC BAA-42. The experiment can be described thus: MIC assay, S. aureus ATCC BAA-42.
Experimental: as §1
The subject of experiment [7] is Staphylococcus aureus ATCC BAA-1721. The experiment can be described thus: MIC assay, S. aureus ATCC BAA-1721.
Experimental: as §1
Experiment [8] deals with Salmonella enterica IR715. Nature of the experiment: MIC assay, Salmonella enterica IR715.
Experimental: (§2) Minimum Inhibitory Concentration (MIC) and Minimal Bactericidal Concentration (MBC) Assays. […] Specifically, overnight cultures in an appropriate broth (e.g., Luria Bertani, Mueller-Hinton II) were diluted to 5×10^5 cfu/mL and used to fill wells of a 96-well plate. […] The plates were incubated on a shaker (200 rpm) at 35-37° C. for 18-20 hours, and then the optical density was measured at 595 nm on a microplate reader. Samples of each well without visible growth were diluted and spread on LB agar petri dishes. The petri dishes were incubated overnight at 37° C., and the colonies were counted.
Experiment [9] relates to Staphylococcus aureus NCTC 8325 pT181. Nature of the experiment: MIC assay, S. aureus NCTC 8325 pT181.
Experimental: as §1
Experiment [10] relates to Enterococcus faecium Com15. Nature of the experiment: MIC assay, Enterococcus faecium Com15.
Experimental: as §1
The test system of experiment [11] is Proteus mirabilis ATCC29906. Nature of the experiment: MIC assay, Proteus mirabilis ATCC29906.
Experimental: as §2
In experiment [12] the test system is Pseudomonas aeruginosa PAO1. The experiment can be described thus: MIC assay, Pseudomonas aeruginosa PAO1.
Experimental: as §1
The test system of experiment [13] is Listeria monocytogenes ATCC15313. Nature of the experiment: MIC assay, Listeria monocytogenes ATCC15313.
Experimental: as §1
The test system of experiment [14] is Staphylococcus epidermidis RP62A. Nature of the experiment: MIC assay, Staphylococcus epidermidis RP62A.
Experimental: as §1
The subject of experiment [15] is Acinetobacter baumannii ATCC17978. Nature of the experiment: MIC assay, Acinetobacter baumannii ATCC17978.
Experimental: as §2
Experiment [16] relates to rifamycin resistant S. aureus strains carrying RNAP mutations. Nature of the experiment: Activity against rifamycin resistant S. aureus strains carrying RNAP mutations. The settings on record: FIG. 6D.
The subject of experiment [17] is S. aureus ATCC 12600 D471Y mutant strain.
For experiment [18] the test system is unchanged. Nature of the experiment: microbe, parasite or virus in culture. The following applies: Staphylococcus aureus, ATCC12600.
The mark [19] stands for this setting: Mycobacterium tuberculosis H37Rv, Table 5.
[20] abbreviates: Mycobacterium tuberculosis, H37RV.
The mark [21] stands for this setting: Staphylococcus aureus, ATCCBAA42.
Where [22] appears, read: Staphylococcus aureus, ATCCBAA1721.
The mark [23] stands for this setting: Staphylococcus aureus, NCTC8325.

In brackets after ≈: the same amount, converted by molar mass. Like-named read-outs stand apart in the source and are kept apart here. Where only a bound is given, the exact number is not on record here.

`CC(=O)OC1C(C)C(OC2CC3OCOC3C(C)O2)/C=C/OC2(C)OC3=C(C)C(=O)c4c(O)c(cc5c4C3=C2OCO5)NC(=O)/C(C)=C\C=C\C(C(C)OC(=O)C(C)(C)CC(=O)O)C(O)C(C)C(O)C1C` (stereo not drawn) [Kang V2, kanglemycin V2]: the MIC is 0.62 µg/mL (≈ 0.622 µM) in [1]; 1.6 µg/mL (≈ 1.61 µM) in the experiment on M. tuberculosis H37Rv (setting [19]); 1 µg/mL (≈ 1 µM) in [3]; 2 µg/mL (≈ 2.01 µM) in experiment [4]; 1 µg/mL (≈ 1 µM) in experiment [5]; 1 µg/mL (≈ 1 µM) in experiment [6] (setting [21]). For the same compound, the MIC in experiment [7] (setting [22]) is 0.25 µg/mL (≈ 0.251 µM); in [8], greater than 64 µg/mL; in [9] (setting [23]) it was 0.25 µg/mL (≈ 0.251 µM); in [10] (Enterococcus faecium, COM15), 64 µg/mL (≈ 64.3 µM); in experiment [11], greater than 64 µg/mL; in experiment [12], 64 µg/mL (≈ 64.3 µM). Also, the results for the MIC in experiment [13], in experiment [14] and in [15] were 1 µg/mL (≈ 1 µM), 0.25 µg/mL (≈ 0.251 µM) and greater than 64 µg/mL, respectively. Further, in the experiment on M. tuberculosis H37Rv (setting [20]), the 90% effect level (IC90) was put at 1.56 µM. Moreover, the “in vitro activity against RNAP (run-off transcription)” value in experiment [2] is reported as “highest potency”. In addition, the “activity against rifamycin resistant S. aureus strains” value in experiment [16] was “active”.
For `CC(=O)O[C@@H]1[C@@H](C)[C@@H](O)[C@@H](C)[C@@H](O)[C@@H]([C@@H](C)OC(=O)C(C)(C)CC(=O)O)/C=C/C=C(\C)C(=O)NC2=CC(=O)c3c(c(O)c(C)c4c3C(=O)[C@](C)(O/C=C/[C@H](O[C@@H]3C[C@@H]5OCO[C@@H]5[C@H](C)O3)[C@H]1C)O4)C2=O` [Kang A, kanglemycin A, reference compound], the MIC in experiment [1] came out at 0.62 µg/mL (≈ 0.631 µM); in experiment [3] it was 1.0 µg/mL (≈ 1.02 µM); in [4], 2.0 µg/mL (≈ 2.04 µM); in experiment [5], 0.5 µg/mL (≈ 0.509 µM); in [6] (Staphylococcus aureus ATCC BAA-42) it was 1.0 µg/mL (≈ 1.02 µM); in [7] (Staphylococcus aureus ATCC BAA-1721), 2.0 µg/mL (≈ 2.04 µM). Further, the MIC in experiment [8] was greater than 64 µg/mL; in [9] (Staphylococcus aureus NCTC 8325 pT181) it was 0.25 µg/mL (≈ 0.255 µM); in experiment [10] (Enterococcus faecium Com15), 64 µg/mL (≈ 65.2 µM); in experiment [11] it was greater than 64 µg/mL; in [12], 64 µg/mL (≈ 65.2 µM); in experiment [13], 2.0 µg/mL (≈ 2.04 µM). Besides, the figures for the MIC in [14] and in experiment [15] were 0.25 µg/mL (≈ 0.255 µM) and greater than 64 µg/mL, respectively. The IC90 with M. tuberculosis H37Rv (M. tuberculosis H37Rv, read-out: IC90) is 12.5 µM. Besides, the “IC90 (footnote a; column head MIC)” value in the experiment with M. tuberculosis H37Rv (setting [19]) stood at 13 µg/mL (≈ 13.2 µM).
With `CC(=O)OC1C(C)C(OC2CC3OCOC3C(C)O2)/C=C/OC2(C)CC(O)c3c(c(C)c(O)c4c3C(=O)C=C(NC(=O)/C(C)=C\C=C\C(C(C)OC(=O)C(C)(C)CC(=O)O)C(O)C(C)C(O)C1C)C4=O)O2` (stereo not drawn) [Kang V1, kanglemycin V1], the MIC in experiment [1] turned out to be 0.069 µg/mL (≈ 0.0691 µM); in the experiment on M. tuberculosis H37Rv (setting [19]), 3.1 µg/mL (≈ 3.11 µM); in experiment [3] it was 0.13 µg/mL (≈ 0.13 µM); in [4] it was 0.25 µg/mL (≈ 0.25 µM); in experiment [5], 0.063 µg/mL (≈ 0.0631 µM); in experiment [6] (setting [21]) it was 0.13 µg/mL (≈ 0.13 µM). In addition, the MIC in experiment [7] (setting [22]) was 0.063 µg/mL (≈ 0.0631 µM); in experiment [8], greater than 64 µg/mL; in [9] (setting [23]), 0.063 µg/mL (≈ 0.0631 µM); in [10] (Enterococcus faecium, COM15), 32 µg/mL (≈ 32.1 µM); in experiment [18], 0.069 µg/mL (≈ 0.0691 µM); in experiment [11], greater than 64 µg/mL. Moreover, the MIC in experiment [12] was 64 µg/mL (≈ 64.1 µM); in experiment [13], 1 µg/mL (≈ 1 µM); in [14], 0.031 µg/mL (≈ 0.0311 µM); in experiment [15], greater than 64 µg/mL. This compound also had an IC90 in the experiment on M. tuberculosis H37Rv (setting [20]) of 3.12 µM. Also, the “fold lower MIC than rifampicin” value in [17] is recorded as roughly 80 fold. The “activity against rifamycin resistant S. aureus strains” value in experiment [16] was “active”.
`CO[C@H]1/C=C/O[C@@]2(C)Oc3c(C)c(O)c4c(O)c(c(/C=N/N5CCN(C)CC5)c(O)c4c3C2=O)NC(=O)/C(C)=C\C=C\[C@H](C)[C@H](O)[C@@H](C)[C@@H](O)[C@@H](C)[C@H](OC(C)=O)[C@@H]1C` [Rifampicin, rifampicin, reference compound]: the MIC is 0.023 µg/mL (≈ 0.0279 µM) in experiment [1] (read-out: MIC); 0.2 µg/mL (≈ 0.243 µM) in the experiment on M. tuberculosis H37Rv (setting [19]); 0.0078 µg/mL (≈ 0.00948 µM) in experiment [3]; 0.0078 µg/mL (≈ 0.00948 µM) in experiment [4]; 0.016 µg/mL (≈ 0.0194 µM) in [5]; 0.016 µg/mL (≈ 0.0194 µM) in experiment [6] (setting [21]). The MIC amounted to 0.0078 µg/mL (≈ 0.00948 µM) in experiment [7] (setting [22]); 0.031 µg/mL (≈ 0.0377 µM) in experiment [9] (setting [23]); 4 µg/mL (≈ 4.86 µM) in experiment [10] (Enterococcus faecium, COM15); 5.6 µg/mL (≈ 6.8 µM) in experiment [18]; 32 µg/mL (≈ 38.9 µM) in [12]; 0.031 µg/mL (≈ 0.0377 µM) in experiment [13]. In experiment [14], this compound had an MIC of 0.016 µg/mL (≈ 0.0194 µM).

Usually IC90 stands for the point of the concentration-response curve where the effect stands at 90%.

Values taken from patent publication US11325920B2, “Antibacterial compounds, compositions thereof, and methods using same” (The Rockefeller University, priority 2018, dated 2022).
